For the assay, the system named is MV-4-11 cells. Nature of the assay: Gene expression microarray analysis (Affymetrix PrimeView) and GSEA. The arrangement: RFU PODN (11730768_x_at) / Fold change /veh PODN (11730768_x_at) / RFU LINC00158 (11744669_a_at) / Fold change /veh LINC00158 (11744669_a_at) / RFU DUSP10 (11751237_a_at) / Fold change /veh DUSP10 (11751237_a_at) / RFU ID3 (11757404_x_at) / Fold change /veh ID3 (11757404_x_at) / RFU PLEKHG5 (11737974_s_at) / Fold change /veh PLEKHG5 (11737974_s_at) / RFU LRRC4B (11730491_at) / Fold change /veh LRRC4B (11730491_at) / RFU GIMAP4 (11747438_a_at) / Fold change /veh GIMAP4 (11747438_a_at) / RFU KRT8 (11758183_x_at) / Fold change /veh KRT8 (11758183_x_at) / RFU CNN1 (11734310_a_at) / Fold change /veh CNN1 (11734310_a_at) / RFU VPS37D (11726825_at) / Fold change /veh VPS37D (11726825_at) / RFU C10orf10 (11716522_x_at) / Fold change /veh C10orf10 (11716522_x_at) / RFU KIR2DL2 /// KIR2DL4 /// KIR2DL5A /// KIR2DL5B /// KIR2DS1 /// KIR2DS2 /// KIR2DS3 /// KIR2DS4 /// KIR3DL3 /// KIR3DL3 /// KIR3DS1 (11738374_at) / Fold change /veh KIR2DL2 /// KIR2DL4 /// KIR2DL5A /// KIR2DL5B /// KIR2DS1 /// KIR2DS2 /// KIR2DS3 /// KIR2DS4 /// KIR3DL3 /// KIR3DL3 /// KIR3DS1 (11738374_at) / RFU C1QL1 (11718748_at) / Fold change /veh C1QL1 (11718748_at) / RFU TMPRSS4 (11747572_a_at) / Fold change /veh TMPRSS4 (11747572_a_at) / RFU HAMP (11756126_x_at) / Fold change /veh HAMP (11756126_x_at) / RFU RNFT2 (11725882_a_at) / Fold change /veh RNFT2 (11725882_a_at) / RFU NR4A2 (11747474_a_at) / Fold change /veh NR4A2 (11747474_a_at) / RFU ABCC12 (11746883_a_at) / Fold change /veh ABCC12 (11746883_a_at) / RFU TMEM136 (11760407_x_at) / Fold change /veh TMEM136 (11760407_x_at) / RFU CLDN22 /// WWC2 (11732394_at) / Fold change /veh CLDN22 /// WWC2 (11732394_at) / RFU HLA-DPB1 (11760878_x_at) / Fold change /veh HLA-DPB1 (11760878_x_at) / RFU SPINT1 (11716480_a_at) / Fold change /veh SPINT1 (11716480_a_at) / RFU GAP43 (11754022_s_at) / Fold change /veh GAP43 (11754022_s_at) / RFU A4GNT (11735810_at) / Fold change /veh A4GNT (11735810_at) / RFU PRB3 (11715151_x_at) / Fold change /veh PRB3 (11715151_x_at) / RFU TUBB4B (11761932_at) / Fold change /veh TUBB4B (11761932_at) / RFU CAPN14 (11732068_a_at) / Fold change /veh CAPN14 (11732068_a_at) / RFU TMCC2 (11721928_a_at) / Fold change /veh TMCC2 (11721928_a_at) / RFU IRGQ (11745062_a_at) / Fold change /veh IRGQ (11745062_a_at) / RFU FAM174B (11720279_a_at) / Fold change /veh FAM174B (11720279_a_at) / RFU TMPRSS4 (11748680_a_at) / Fold change /veh TMPRSS4 (11748680_a_at) / RFU FAM212B (11763350_a_at) / Fold change /veh FAM212B (11763350_a_at) / RFU PLEKHG5 (11743358_a_at) / Fold change /veh PLEKHG5 (11743358_a_at) / RFU ZSCAN30 (11745921_a_at) / Fold change /veh ZSCAN30 (11745921_a_at) / RFU CMKLR1 (11741424_a_at) / Fold change /veh CMKLR1 (11741424_a_at) / RFU LOC101060620 /// MAPK8IP1 (11723275_at) / Fold change /veh LOC101060620 /// MAPK8IP1 (11723275_at) / RFU SPTSSB (11747773_x_at) / Fold change /veh SPTSSB (11747773_x_at) / RFU PRSS12 (11739890_at) / Fold change /veh PRSS12 (11739890_at) / RFU BIN1 (11741810_x_at) / Fold change /veh BIN1 (11741810_x_at) / RFU WNT11 (11732464_a_at) / Fold change /veh WNT11 (11732464_a_at) / RFU C10orf10 (11716521_a_at) / Fold change /veh C10orf10 (11716521_a_at) / RFU C5orf56 (11738089_at) / Fold change /veh C5orf56 (11738089_at) / RFU CYB561 (11721691_x_at) / Fold change /veh CYB561 (11721691_x_at) / RFU ANKRD19P (11752326_a_at) / Fold change /veh ANKRD19P (11752326_a_at) / RFU OR2T12 /// OR2T33 /// OR2T8 (11738714_s_at) / Fold change /veh OR2T12 /// OR2T33 /// OR2T8 (11738714_s_at) / RFU VCAN (11748164_a_at) / Fold change /veh VCAN (11748164_a_at) / RFU JSRP1 (11732532_at) / Fold change /veh JSRP1 (11732532_at) / RFU KRTAP10-11 (11738290_x_at) / Fold change /veh KRTAP10-11 (11738290_x_at) / RFU MYO3A (11730013_a_at) / Fold change /veh MYO3A (11730013_a_at) / RFU EBF3 (11725865_a_at) / Fold change /veh EBF3 (11725865_a_at) / RFU CAMK2N1 (11719241_x_at) / Fold change /veh CAMK2N1 (11719241_x_at) / RFU C5orf56 (11738088_a_at) / Fold change /veh C5orf56 (11738088_a_at) / RFU OLFML3 (11715873_a_at) / Fold change /veh OLFML3 (11715873_a_at) / RFU LOC100653217 /// NTM (11731650_a_at) / Fold change /veh LOC100653217 /// NTM (11731650_a_at) / RFU MAPK11 (11762145_a_at) / Fold change /veh MAPK11 (11762145_a_at) / RFU FIZ1 (11724087_x_at) / Fold change /veh FIZ1 (11724087_x_at) / RFU OASL (11726364_x_at) / Fold change /veh OASL (11726364_x_at) / RFU SOX15 (11748057_x_at) / Fold change /veh SOX15 (11748057_x_at) / RFU CD79A (11719716_a_at) / Fold change /veh CD79A (11719716_a_at) / RFU HIST1H1D (11736915_at) / Fold change /veh HIST1H1D (11736915_at) / RFU CASKIN2 (11723855_a_at) / Fold change /veh CASKIN2 (11723855_a_at) / RFU LOC730098 (11760151_x_at) / Fold change /veh LOC730098 (11760151_x_at) / RFU OR4N2 (11742367_at) / Fold change /veh OR4N2 (11742367_at) / RFU PRRT2 (11749266_a_at) / Fold change /veh PRRT2 (11749266_a_at) / RFU SNX32 (11753110_a_at) / Fold change /veh SNX32 (11753110_a_at) / RFU CDHR5 (11726645_a_at) / Fold change /veh CDHR5 (11726645_a_at) / RFU RCAN1 (11760418_a_at) / Fold change /veh RCAN1 (11760418_a_at) / RFU FAM167A (11723789_a_at) / Fold change /veh FAM167A (11723789_a_at) / RFU FAM26E (11764081_at) / Fold change /veh FAM26E (11764081_at) / RFU ISYNA1 (11749810_s_at) / Fold change /veh ISYNA1 (11749810_s_at) / RFU ACY1 (11761880_at) / Fold change /veh ACY1 (11761880_at) / RFU 11764098_at / Fold change /veh 11764098_at / RFU SAMD14 (11745864_x_at) / Fold change /veh SAMD14 (11745864_x_at) / RFU NPB (11741838_a_at) / Fold change /veh NPB (11741838_a_at) / RFU TMPRSS6 (11731388_a_at) / Fold change /veh TMPRSS6 (11731388_a_at) / RFU KRTAP10-2 (11738614_at) / Fold change /veh KRTAP10-2 (11738614_at) / RFU ARHGAP8 /// PRR5-ARHGAP8 (11727945_x_at) / Fold change /veh ARHGAP8 /// PRR5-ARHGAP8 (11727945_x_at) / RFU KRTAP5-7 /// NADSYN1 (11734609_at) / Fold change /veh KRTAP5-7 /// NADSYN1 (11734609_at) / RFU RASL12 (11751679_a_at) / Fold change /veh RASL12 (11751679_a_at) / RFU CDKN2B (11736163_a_at) / Fold change /veh CDKN2B (11736163_a_at) / RFU PRF1 (11729649_at) / Fold change /veh PRF1 (11729649_at) / RFU, ZNF638 /// ZNF638-IT1 / Fold change vs veh, ZNF638 /// ZNF638-IT1 / RFU, PANK3 / Fold change vs veh, PANK3 / RFU, SH3YL1 / Fold change vs veh, SH3YL1 / RFU, ZEB2 / Fold change vs veh, ZEB2 / RFU, NRIP1 / Fold change vs veh, NRIP1 / RFU, PTTG1IP / Fold change vs veh, PTTG1IP / RFU, CAPN2 / Fold change vs veh, CAPN2 / RFU, MED14 / Fold change vs veh, MED14 / RFU, SNORA58 / Fold change vs veh, SNORA58 / RFU, C1orf63 / Fold change vs veh, C1orf63 / RFU, LRRFIP1 / Fold change vs veh, LRRFIP1 / RFU, NDUFAF7 / Fold change vs veh, NDUFAF7 / RFU, SLC12A2 / Fold change vs veh, SLC12A2 / RFU, IBTK / Fold change vs veh, IBTK / RFU, ESF1 / Fold change vs veh, ESF1 / Fold change vs veh, TMEM50B / RFU, TAOK1 / Fold change vs veh, TAOK1 / RFU, ACBD3 / Fold change vs veh, ACBD3 / RFU, TMA16 / Fold change vs veh, TMA16 / RFU, RWDD3 / Fold change vs veh, RWDD3 / RFU, BCAT1 / Fold change vs veh, BCAT1 / RFU, EDEM3 / Fold change vs veh, EDEM3 / RFU, TMEM33 / Fold change vs veh, TMEM33 / RFU, WDR75 / Fold change vs veh, WDR75 / RFU, AHCTF1 / Fold change vs veh, AHCTF1 / RFU, TFRC / Fold change vs veh, TFRC / RFU, ZDHHC17 / Fold change vs veh, ZDHHC17 / RFU, NOM1 / Fold change vs veh, NOM1 / RFU, ARL8B / Fold change vs veh, ARL8B / RFU, ZBTB11 / Fold change vs veh, ZBTB11 / RFU, TAMM41 / Fold change vs veh, TAMM41 / RFU, KIAA1704 /// LOC100996395 / Fold change vs veh, KIAA1704 /// LOC100996395 / RFU, ING1 / Fold change vs veh, ING1 / RFU, TRMT61B / Fold change vs veh, TRMT61B / RFU, FUBP3 / Fold change vs veh, FUBP3 / RFU, TP53 / Fold change vs veh, TP53 / RFU, TNKS2 / Fold change vs veh, TNKS2 / RFU, ZFP14 / Fold change vs veh, ZFP14 / RFU, ACTR2 / Fold change vs veh, ACTR2 / RFU, PPP3R1 / Fold change vs veh, PPP3R1 / RFU, PIK3R1 / Fold change vs veh, PIK3R1 / RFU, HNRNPA1 / Fold change vs veh, HNRNPA1 / RFU, RNF170 / Fold change vs veh, RNF170 / RFU, ZNF28 / Fold change vs veh, ZNF28 / RFU, RNGTT / Fold change vs veh, RNGTT / RFU, OGT / Fold change vs veh, OGT / RFU, BRD1 / Fold change vs veh, BRD1 / RFU, MARS / Fold change vs veh, MARS / RFU, ZNF655 / Fold change vs veh, ZNF655 / RFU, FAHD1 / Fold change vs veh, FAHD1 / RFU, BDP1 / Fold change vs veh, BDP1 / RFU, LRRCC1 / Fold change vs veh, LRRCC1 / RFU, ARID1A / Fold change vs veh, ARID1A / RFU, ZNF146 / Fold change vs veh, ZNF146 / RFU, ZNF330 / Fold change vs veh, ZNF330 / RFU, GPN3 / Fold change vs veh, GPN3 / RFU, C9orf123 / Fold change vs veh, C9orf123 / RFU, N4BP2L2 / Fold change vs veh, N4BP2L2 / RFU, ARFIP1 / Fold change vs veh, ARFIP1 / RFU, FAM179B / Fold change vs veh, FAM179B / RFU, BCL10 / Fold change vs veh, BCL10 / RFU, UHRF1BP1L / Fold change vs veh, UHRF1BP1L / RFU, BET1 / Fold change vs veh, BET1 / RFU, CNOT2 / Fold change vs veh, CNOT2 / RFU, ZNF268 / Fold change vs veh, ZNF268 / Fold change vs veh, ZNF507 / RFU, DGCR2 / Fold change vs veh, DGCR2 / RFU, WDSUB1 / Fold change vs veh, WDSUB1 / Fold change vs veh, HSP90B1 /// MIR3652 / RFU, ADSS / Fold change vs veh, ADSS / RFU, GK / Fold change vs veh, GK / RFU, ZNF148 / Fold change vs veh, ZNF148 / RFU, TAF9 / Fold change vs veh, TAF9 / RFU, SLC1A5 / Fold change vs veh, SLC1A5 / RFU, SLMO2 / Fold change vs veh, SLMO2 / RFU, ABCC4 / Fold change vs veh, ABCC4 / RFU, LOC101060439 /// RAP1B / Fold change vs veh, LOC101060439 /// RAP1B / RFU, RFX7 / Fold change vs veh, RFX7 / RFU, GTPBP10 / Fold change vs veh, GTPBP10 / RFU, CNEP1R1 / Fold change vs veh, CNEP1R1 / RFU, BIVM-ERCC5 /// ERCC5 / Fold change vs veh, BIVM-ERCC5 /// ERCC5 / RFU, ILF3 / Fold change vs veh, ILF3 / RFU 11762660_at / Fold change /veh 11762660_at / RFU VCAN (11757783_s_at) / Fold change /veh VCAN (11757783_s_at) / RFU DDX43 (11728927_at) / Fold change /veh DDX43 (11728927_at) / RFU KRT8 (11758188_x_at) / Fold change /veh KRT8 (11758188_x_at) / RFU NKD1 (11759106_at) / Fold change /veh NKD1 (11759106_at) / RFU SRD5A1 (11742802_a_at) / Fold change /veh SRD5A1 (11742802_a_at) / RFU TPSAB1 /// TPSB2 (11721975_s_at) / Fold change /veh TPSAB1 /// TPSB2 (11721975_s_at) / RFU GSTM3 (11746129_a_at) / Fold change /veh GSTM3 (11746129_a_at) / RFU IL23R (11737362_x_at) / Fold change /veh IL23R (11737362_x_at) / RFU TMEM51 (11727254_a_at) / Fold change /veh TMEM51 (11727254_a_at) / RFU PIWIL2 (11732686_x_at) / Fold change /veh PIWIL2 (11732686_x_at) / RFU ORM1 (11744905_x_at) / Fold change /veh ORM1 (11744905_x_at) / RFU CCDC152 (11743942_at) / Fold change /veh CCDC152 (11743942_at) / RFU ECM1 (11717891_a_at) / Fold change /veh ECM1 (11717891_a_at) / RFU IL23R (11748794_a_at) / Fold change /veh IL23R (11748794_a_at) / RFU TNFAIP8L3 (11732012_x_at) / Fold change /veh TNFAIP8L3 (11732012_x_at) / RFU MBOAT4 (11741988_at) / Fold change /veh MBOAT4 (11741988_at) / RFU 11764193_at / Fold change /veh 11764193_at / RFU TMEM53 (11763286_at) / Fold change /veh TMEM53 (11763286_at) / RFU MAGEB2 (11727129_at) / Fold change /veh MAGEB2 (11727129_at) / RFU TMEM200A (11744735_a_at) / Fold change /veh TMEM200A (11744735_a_at) / RFU CCDC152 (11751479_a_at) / Fold change /veh CCDC152 (11751479_a_at) / RFU FAM211A (11726209_a_at) / Fold change /veh FAM211A (11726209_a_at) / RFU RGS16 (11746705_a_at) / Fold change /veh RGS16 (11746705_a_at) / RFU VCAN (11755009_s_at) / Fold change /veh VCAN (11755009_s_at) / RFU RHOB (11743442_s_at) / Fold change /veh RHOB (11743442_s_at) / RFU RGS16 (11720943_a_at) / Fold change /veh RGS16 (11720943_a_at) / RFU RGS16 (11720944_at) / Fold change /veh RGS16 (11720944_at) / RFU, VPS4B / Fold change vs veh, VPS4B / RFU, CREB1 / Fold change vs veh, CREB1 / RFU, DNAJC13 / Fold change vs veh, DNAJC13 / RFU, GNAQ / Fold change vs veh, GNAQ / RFU, CDK5R1 / Fold change vs veh, CDK5R1 / RFU, ZRANB3 / Fold change vs veh, ZRANB3 / RFU, CUL4A / Fold change vs veh, CUL4A / RFU, CCNY / Fold change vs veh, CCNY / RFU, UFL1 / Fold change vs veh, UFL1 / RFU, COG3 / Fold change vs veh, COG3 / RFU, DIAPH2 / Fold change vs veh, DIAPH2 / RFU, SKA2 / Fold change vs veh, SKA2 / RFU, AFF3 / Fold change vs veh, AFF3 / RFU, LMF1 / Fold change vs veh, LMF1 / RFU, IPO11 / Fold change vs veh, IPO11 / RFU, DFFB / Fold change vs veh, DFFB / RFU, FOXP1 / Fold change vs veh, FOXP1 / RFU, CARD8 / Fold change vs veh, CARD8 / RFU, STRN3 / Fold change vs veh, STRN3 / RFU, ADK / Fold change vs veh, ADK / RFU, RASSF2 / Fold change vs veh, RASSF2 / RFU, WIPF1 / Fold change vs veh, WIPF1 / RFU, LARP1B / Fold change vs veh, LARP1B / RFU, RASA1 / Fold change vs veh, RASA1 / RFU, RB1 / Fold change vs veh, RB1 / RFU, PPFIA1 / Fold change vs veh, PPFIA1 / RFU, MAT2A / Fold change vs veh, MAT2A / RFU, CCT5 / Fold change vs veh, CCT5 / RFU, WDR92 / Fold change vs veh, WDR92 / RFU, CUX1 / Fold change vs veh, CUX1 / RFU, TTC7A / Fold change vs veh, TTC7A / RFU, TMEM135 / Fold change vs veh, TMEM135 / RFU, DEPTOR / Fold change vs veh, DEPTOR / RFU, CPM / Fold change vs veh, CPM / RFU, DNAJB6 / Fold change vs veh, DNAJB6 / RFU, CACNA2D3 / Fold change vs veh, CACNA2D3 / RFU, DTX4 / Fold change vs veh, DTX4 / RFU, TFCP2 / Fold change vs veh, TFCP2 / RFU, GMCL1 /// GMCL1P1 / Fold change vs veh, GMCL1 /// GMCL1P1 / RFU, AEBP2 / Fold change vs veh, AEBP2 / RFU, SNHG1 /// SNORD22 /// SNORD25 /// SNORD26 /// SNORD27 /// SNORD28 /// SNORD29 /// SNORD31 / Fold change vs veh, SNHG1 /// SNORD22 /// SNORD25 /// SNORD26 /// SNORD27 /// SNORD28 /// SNORD29 /// SNORD31 / Fold change (Aza/veh), C12orf56 (ProbeSet 11735607_a_at) / Fold change (ACY-1035/veh), C12orf56 (ProbeSet 11735607_a_at) / Fold change (Aza/veh), FGFR1OP (ProbeSet 11751329_s_at) / Fold change (ACY-1035/veh), FGFR1OP (ProbeSet 11751329_s_at) / Fold change (Aza/veh), VPS36 (ProbeSet 11739960_a_at) / Fold change (ACY-1035/veh), VPS36 (ProbeSet 11739960_a_at) / RFU SYPL1 (11715823_x_at) / Fold change /veh SYPL1 (11715823_x_at) / RFU IGFBP7 (11715501_s_at) / Fold change /veh IGFBP7 (11715501_s_at) / RFU REEP3 (11722064_at) / Fold change /veh REEP3 (11722064_at) / RFU IGLL1 (11728026_x_at) / Fold change /veh IGLL1 (11728026_x_at): dose or concentration left out as unconfirmed. The format is cell-based, human. The following applies: MV-4-11 cells, 48 hours.

The structures appear in SMILES notation.

Regarding `Nc1ccc(-c2cccs2)cc1NC(=O)c1ccc2c(c1)cc(C1CC1)n2CCN1CCOCC1` [ACY-1035], the “Fold change /veh LOC100653217 /// NTM (11731650_a_at)” value is 0.99.

The values are drawn from PMC5218480 (PLoS ONE, 2017).
